# Data reported in ChEMBL document CHEMBL4392881, “Noursamycins, Chlorinated Cyclohexapeptides Identified from Molecular Networking of Streptomyces noursei NTR-SR4” (2019).
# Columns and labels:
# [1] = test system: Escherichia coli; assay: Antibacterial activity against Escherichia coli BW25113 measured after 20 hrs; type: functional; conditions: BW25113, 20 h
# [2] = test system: Bacillus subtilis; assay: Antibacterial activity against Bacillus subtilis DSM10 measured after 20 hrs; type: functional; conditions: DSM10, 20 h
# [3] = test system: Micrococcus luteus; assay: Antibacterial activity against Micrococcus luteus DSM 1790 measured after 20 hrs; type: functional; conditions: DSM 1790, 20 h
# [4] = test system: Mycolicibacterium phlei; assay: Antibacterial activity against Mycobacterium phlei DSM 750 measured after 20 hrs; type: functional; conditions: DSM 750, 20 h
# [5] = test system: Enterococcus faecalis; assay: Antibacterial activity against vancomycin-resistant Enterococcus faecalis JMRC:ST:33700 assessed as diameter of promotion of inhibition zone by agar diffusion test (reference value: 0 millimeter); type: functional
# [6] = test system: Mycolicibacterium vaccae; assay: Antibacterial activity against Mycobacterium vaccae JMRC:STI:10670 assessed as diameter of colonies in inhibition zone by agar diffusion test (reference value: 0 millimeter); type: functional
# [7] = test system: Salmonella typhimurium; assay: Antibacterial activity against Salmonella typhimurium TA100 measured after 20 hrs; type: functional, Salmonella enterica subsp. enterica serovar Typhimurium; conditions: Salmonella enterica, TA100, 20 h
# [8] = test system: Escherichia coli; assay: Antibacterial activity against Escherichia coli DSM 1116 measured after 20 hrs; type: functional; conditions: DSM 1116, 20 h
# [9] = test system: Sporobolomyces salmonicolor; assay: Antifungal activity against Sporobolomyces salmonicolor JMRC:ST:35974 assessed as diameter of colonies in inhibition zone by agar diffusion test (reference value: 10 millimeter); type: functional
# [10] = test system: Penicillium chrysogenum; assay: Antifungal activity against Penicillium notatum JMRC:STI:50164 assessed as diameter of colonies in inhibition zone by agar diffusion test (reference value: 10 millimeter); type: functional
# [11] = test system: Candida albicans; assay: Antifungal activity against Candida albicans JMRC:STI:25000 assessed as diameter of clear inhibition zone by agar diffusion test (reference value: 0 millimeter); type: functional
# [12] = test system: Pseudomonas aeruginosa; assay: Antibacterial activity against Pseudomonas aeruginosa JMRC:ST:337721 assessed as diameter of clear inhibition zone by agar diffusion test (reference value: 0 millimeter); type: functional
# [13] = test system: Mycolicibacterium vaccae; assay: Antibacterial activity against Mycobacterium vaccae JMRC:STI:10670 assessed as diameter of clear inhibition zone by agar diffusion test (reference value: 0 millimeter); type: functional
# [14] = test system: Bacillus subtilis; assay: Antibacterial activity against Bacillus subtilis JMRC:STI:10880 assessed as diameter of clear inhibition zone by agar diffusion test (reference value: 0 millimeter); type: functional
# [15] = test system: Escherichia coli; assay: Antibacterial activity against Escherichia coli JMRC:ST:33699 assessed as diameter of clear inhibition zone by agar diffusion test (reference value: 0 millimeter); type: functional
# [16] = test system: Penicillium chrysogenum; assay: Antifungal activity against Penicillium notatum JMRC:STI:50164 assessed as diameter of clear inhibition zone by agar diffusion test (reference value: 10 millimeter); type: functional
# [17] = test system: Staphylococcus aureus; assay: Antibacterial activity against mulitdrug-resistant Staphylococcus aureus JMRC:ST:33793 assessed as diameter of clear inhibition zone by agar diffusion test (reference value: 0 millimeter); type: functional
# [18] = test system: Staphylococcus aureus; assay: Antibacterial activity against Staphylococcus aureus JMRC:ST:10760 assessed as diameter of clear inhibition zone by agar diffusion test (reference value: 0 millimeter); type: functional
# [19] = test system: Pseudomonas aeruginosa; assay: Antibacterial activity against Pseudomonas aeruginosa JMRC:ST:33772 assessed as diameter of clear inhibition zone by agar diffusion test (reference value: 0 millimeter); type: functional
# [20] = test system: Staphylococcus aureus; assay: Antibacterial activity against mulitdrug-resistant Staphylococcus aureus JMRC:ST:33793 assessed as diameter of colonies in inhibition zone by agar diffusion test (reference value: 0 millimeter); type: functional
SMILES,MIC [1] [µg/mL],MIC [2] [µg/mL],MIC [3] [µg/mL],MIC [4] [µg/mL],diameter of the inhibition zone (DIZ) [5] [mm],diameter of the inhibition zone (DIZ) [6] [mm],MIC [7] [µg/mL],MIC [8] [µg/mL],diameter of the inhibition zone (DIZ) [9] [mm],diameter of the inhibition zone (DIZ) [10] [mm],diameter of the inhibition zone (DIZ) [11] [mm],diameter of the inhibition zone (DIZ) [12] [mm],diameter of the inhibition zone (DIZ) [13] [mm],diameter of the inhibition zone (DIZ) [14] [mm],diameter of the inhibition zone (DIZ) [15] [mm],diameter of the inhibition zone (DIZ) [16] [mm],diameter of the inhibition zone (DIZ) [17] [mm],diameter of the inhibition zone (DIZ) [18] [mm],diameter of the inhibition zone (DIZ) [19] [mm],diameter of the inhibition zone (DIZ) [20] [mm]
O=C(O)c1cn(C2CC2)c2cc(N3CCNCC3)c(F)cc2c1=O [CIPROFLOXACIN],< 0.25,< 0.25,< 0.25,< 0.25,17,21,< 0.25,< 0.25,–,–,–,–,–,–,–,–,–,–,–,–
C[C@@H]1[C@H](O)[C@@H](C)/C=C/C=C/C=C/C=C/C=C/C=C/C=C/[C@H](O[C@@H]2O[C@H](C)[C@@H](O)[C@H](N)[C@@H]2O)C[C@@H]2O[C@](O)(C[C@@H](O)C[C@@H](O)[C@H](O)CC[C@@H](O)C[C@@H](O)CC(=O)O[C@H]1C)C[C@H](O)[C@H]2C(=O)O [AMPHOTERICIN B],–,–,–,–,–,–,–,–,18,19,20,–,–,–,–,–,–,–,–,–
CC[C@@H](C)[C@@H]1NC(=O)[C@@H](Cc2ccccc2)NC(=O)[C@@H](C(C)C)NC(=O)[C@H](Cc2c[nH]c3ccc(Cl)cc23)NC(=O)[C@@H]([C@H](O)C(N)=O)NC(=O)[C@H](CCCN)NC1=O,≥ 64,4,8,8,18,26,16,≥ 64,12,–,0,10,21,18,10,0,18,21,0,–
CC[C@@H](C)[C@@H]1NC(=O)[C@@H](CC(C)C)NC(=O)[C@@H](C(C)C)NC(=O)[C@H](Cc2c[nH]c3ccc(Cl)cc23)NC(=O)[C@@H]([C@H](O)C(N)=O)NC(=O)[C@H](CCCN)NC1=O,≥ 64,32,32,32,16,–,32,≥ 64,12,–,0,10,22,16,0,0,13,18,0,15
